From the NIST ThermoML archive (doi:10.1016/j.fluid.2019.05.003)

Assay: xn = mol fraction of the nth substance listed
Conditions: 101 kPa, Liquid, x2 = 0; for viscosity: Falling or rolling sphere viscometry; for mass density: Vibrating tube method

O [water] + CC[n+]1ccccc1.[Br-]
Conditions | mass density [kg/m3] | viscosity [mPa·s]
298.15 K | – | 0.89
303.15 K | – | 0.797
308.15 K | – | 0.719
313.15 K | – | 0.653
318.15 K | 990.1 | 0.596
323.15 K | 987.9 | 0.547
328.15 K | 985.6 | 0.504
333.15 K | 983.2 | 0.466
338.15 K | 980.3 | 0.433
343.15 K | 978.1 | 0.404
348.15 K | 974.8 | 0.378
